This passage reports TGI results from PubChem BioAssay (NCI).

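1) Cells in 96-well plates. 2) Compound, 48 h, 5 concentrations. 3) Linear interpolation between surrounding doses. 4) Unreached endpoint = highest concentration. TGI denotes the concentration required for complete inhibition of growth.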

Among the test systems are A498 renal; COLO 205 colon; HCT-15 colon; HT29 colon; IGROV1 ovarian; MOLT-4 leukemia; NCI-H23 lung; OVCAR-4 ovarian; RPMI-8226 leukemia; SK-MEL-2 melanoma; SK-MEL-5 melanoma; SK-OV-3 ovarian; SN12C renal; SR leukemia; UACC-257 melanoma; UACC-62 melanoma; HOP-92 NSCLC.
Holding throughout (experiment): inhibition of tumour cell growth, NCI panel, 48 h

In the case of `C/C(CN1C(=O)c2ccccc2C1=O)=N\NS(=O)(=O)c1ccc(F)cc1`, the TGI with A498 renal, in the test on COLO 205 colon, in the test with HCT-15 colon, in the test on HT29 colon, in the test with IGROV1 ovarian and in the test with MOLT-4 leukemia was > 100 µM throughout. In addition, the TGI in the test with NCI-H23 lung, with OVCAR-4 ovarian, in the test with RPMI-8226 leukemia, with SK-MEL-2 melanoma, in the test on SK-MEL-5 melanoma and with SK-OV-3 ovarian was > 100 µM each time. Besides, the TGI in the test on SN12C renal, with SR leukemia, in the test with UACC-257 melanoma and in the test on UACC-62 melanoma was > 100 µM each time.
`COc1cccc(/C=C2\C(=O)N(C(=O)Cc3ccccc3)N=C2C)c1`: the TGI with COLO 205 colon, in the test on HCT-15 colon, with HT29 colon, in the test on MOLT-4 leukemia, in the test on NCI-H23 lung and in the test with OVCAR-4 ovarian was > 100 µM throughout. Further, the TGI in the test with RPMI-8226 leukemia, in the test with SK-MEL-2 melanoma, in the test on SK-MEL-5 melanoma, with SN12C renal, in the test on SR leukemia and in the test on UACC-257 melanoma was > 100 µM in each case.
For the compound `Cn1c2c(cc(-c3ccccc3)c1=O)COc1ccccc1-2`, the TGI in the test with A498 renal was > 100 µM; in the test with COLO 205 colon it was > 100 µM; with HCT-15 colon it was > 100 µM; in the test with HOP-92 NSCLC it was > 100 µM; in the test on HT29 colon it was 47.1 µM; in the test on IGROV1 ovarian, > 100 µM. Further, the TGI was 47.2 µM in the test with MOLT-4 leukemia; > 100 µM with NCI-H23 lung; > 100 µM in the test with OVCAR-4 ovarian; 42.1 µM in the test on RPMI-8226 leukemia; 30.4 µM in the test with SK-MEL-2 melanoma; 39.9 µM in the test with SK-MEL-5 melanoma. Moreover, the TGI is 86.8 µM in the test with SK-OV-3 ovarian; > 100 µM in the test with SN12C renal; > 100 µM in the test on SR leukemia; > 100 µM in the test with UACC-257 melanoma; 28.9 µM in the test on UACC-62 melanoma.
`COCC12CC(CC1=O)C1C2ON2c3ccccc3C(=O)C12c1ccccc1` (stereo not given): the TGI with A498 renal, in the test on COLO 205 colon, in the test on HCT-15 colon, with HOP-92 NSCLC, in the test on HT29 colon and in the test with IGROV1 ovarian was > 100 µM in each case. In addition, the TGI with MOLT-4 leukemia, in the test with NCI-H23 lung, with OVCAR-4 ovarian, in the test with RPMI-8226 leukemia, in the test on SK-MEL-5 melanoma and in the test with SK-OV-3 ovarian was > 100 µM in each case. The TGI with SN12C renal, in the test with SR leukemia, in the test on UACC-257 melanoma and in the test with UACC-62 melanoma was > 100 µM each time.
With `Cn1c(N)c(-c2c3ccccc3nc3ccccc23)c(=O)n(C)c1=O`, the TGI with A498 renal, in the test with COLO 205 colon, in the test with HCT-15 colon, in the test on HOP-92 NSCLC, with HT29 colon and in the test on IGROV1 ovarian was > 100 µM each time. In addition, the TGI in the test on MOLT-4 leukemia, with NCI-H23 lung, in the test with OVCAR-4 ovarian, with RPMI-8226 leukemia, in the test with SK-MEL-2 melanoma and in the test on SK-MEL-5 melanoma was > 100 µM in each case. Further, the TGI in the test with SK-OV-3 ovarian, in the test with SN12C renal and with UACC-62 melanoma was > 100 µM throughout.
Consider `CCCOCN1COCN=C1NC#N`, for which the TGI in the test on A498 renal is > 100 µM; with COLO 205 colon, 32.6 µM; with HCT-15 colon, 32.6 µM; in the test with HOP-92 NSCLC, > 100 µM; in the test on HT29 colon, > 100 µM; in the test with IGROV1 ovarian, > 100 µM. Besides, the TGI in the test with MOLT-4 leukemia, in the test with NCI-H23 lung, in the test on OVCAR-4 ovarian, with RPMI-8226 leukemia, in the test with SK-MEL-2 melanoma and with SK-MEL-5 melanoma was > 100 µM each time. The TGI with SK-OV-3 ovarian, with SN12C renal, in the test on UACC-257 melanoma and in the test on UACC-62 melanoma was > 100 µM each time.
As to `CCOC(=O)c1cn2c([nH]c3ccccc32)c(C#N)c1=O`, the TGI in the test on A498 renal, in the test on COLO 205 colon, with HCT-15 colon, in the test on HOP-92 NSCLC, in the test with HT29 colon and with IGROV1 ovarian was > 100 µM throughout. For the same compound, the TGI in the test with MOLT-4 leukemia, in the test with NCI-H23 lung, with OVCAR-4 ovarian, in the test on SK-MEL-2 melanoma, in the test with SK-MEL-5 melanoma and in the test on SK-OV-3 ovarian was > 100 µM in each case. Further, the TGI in the test with SN12C renal, in the test with SR leukemia, in the test on UACC-257 melanoma and in the test with UACC-62 melanoma was > 100 µM each time.
In the case of `CC1=NN(c2ccccc2)C(=O)C1=C1SCCCS1`, the TGI in the test on A498 renal is 90.7 µM; with COLO 205 colon, 29.3 µM; in the test on HCT-15 colon it was > 100 µM; in the test on HOP-92 NSCLC it was 64 µM; in the test with HT29 colon, > 100 µM; with IGROV1 ovarian, > 100 µM. For the same compound, the TGI is 36.1 µM with MOLT-4 leukemia; > 100 µM in the test with NCI-H23 lung; 46.1 µM in the test on RPMI-8226 leukemia; > 100 µM in the test with SK-MEL-2 melanoma; > 100 µM in the test with SK-MEL-5 melanoma; > 100 µM with SK-OV-3 ovarian. The TGI in the test on SN12C renal came out at 83.2 µM; with SR leukemia, 34.5 µM; in the test with UACC-257 melanoma, 94.1 µM; in the test on UACC-62 melanoma, 39.7 µM.
Regarding `Nc1ccc(C(=O)NN2C(=O)C(Cl)C2c2cccc([N+](=O)[O-])c2)cc1` (stereo not given), the TGI amounted to 45.4 µM in the test with A498 renal; 35 µM with COLO 205 colon; 45.7 µM with HCT-15 colon; 40.7 µM in the test on HOP-92 NSCLC; 37.9 µM with HT29 colon; 30.8 µM in the test with IGROV1 ovarian. For the same compound, the TGI was 37.5 µM in the test with MOLT-4 leukemia; 34.5 µM with NCI-H23 lung; 33.4 µM with OVCAR-4 ovarian; 71.2 µM in the test on RPMI-8226 leukemia; 35.7 µM in the test with SK-MEL-2 melanoma; 34.3 µM in the test on SK-MEL-5 melanoma. Moreover, the TGI was found to be 33.3 µM in the test on SK-OV-3 ovarian, 36.9 µM in the test on SN12C renal, 51 µM in the test on UACC-257 melanoma and 37.1 µM in the test on UACC-62 melanoma.
